Laboratory results: patent US4567270A, “Hexahydroindolizinones useful for treating cardiac arrhythmia, thrombotic disorders in mammals” (G. D. Searle & Co., priority 1984, dated 1986)
Structures can show the parent of a compound that is named as a salt. Where two headings read alike, the source gives them in different places.

Key:
[1] = tested on: ventricular arrhythmia induced by coronary artery ligation; test: Inhibition of ventricular arrhythmia induced by coronary ligation (two-stage ligation of left coronary artery); format: in vivo, dog; conditions: for minimal effective dose: Canis lupus familiaris, iv, read-out: Minimum Effective Dose
Procedure: Arrhythmias induced in this manner are considered similar in nature to those resulting from myocardial infarction in humans. […] The antiarrhythmic and antiaggregatory activities of the compounds of this invention illustrated in the examples were tested by the following methods.
Ventricular arrhythmia was induced by a two-stage ligation of the anterior descending branch of the left coronary artery in each of two or more dogs. Compounds were administered intraveneously using an initial 5 mg/kg body weight dose, with additional doses injected at intervals to a maximum of 20 mg/kg. A compound was rated active if it produced at least a 25% reduction in ectopic beats for a period of at least ten minutes in half or more of the dogs. The average minimum effective dose for each compound was calculated.
Compounds which produced 75-100% reduction in the ventricular arrhythmia at the initial 5 mg/kg dose were further tested using 1 mg/kg doses injected as before at five minute intervals. As before, a compound was rated active if it produced at least a 25% reduction in ectopic beats for a period of at least ten minutes in half or more of the dogs. The average minimum effective dose for each compound was calculated.

[2] = tested on: ADP-induced aggregation of blood platelets; test: Inhibition of ADP-induced platelet aggregation (optical platelet aggregometry in platelet-rich plasma); format: cell-based; conditions: rat platelet-rich plasma; one minute incubation, ADP usually 1-3 mcM
[3] = tested on: ventricular arrhythmia induced by coronary artery ligation; conditions: dog; cited from earlier work
[4] = cited from earlier work; for toxic / side effects: Goodman and Gilman
[5] = tested on: cardiac arrhythmia; conditions: cited from earlier work
[6] = dog, i.v., coronary ligation, average minimum dose giving at least 25% reduction in ectopic beats for at least ten minutes in half or more of the dogs

Row | SMILES | minimal effective dose [1, 6] [mg/kg] | IC50 [2] [µM] | activity of known antiarrhythmics under coronary ligation conditions [3] | toxic / side effects [4] | activity in man [5] | also measured
1 | CC(C)N(CCC1(c2ccccc2Cl)CC2CCCCN2C1=O)C(C)C (racemic) [Example 6, 2-[2-[bis(1-methylethyl)amino]ethyl]-2-(2-chlorophenyl)hexahydro-3(2H)-indolizinone, Racemate A] | 3 | 88 | – | – | – | –
2 | CC(C)N(CCC1(c2ccccc2Cl)CC2CCCCN2C1=O)C(C)C (racemic) [Example 7, 2-[2-[bis(1-methylethyl)-amino]ethyl]-2-(2-chlorophenyl)hexahydro-3(2H)-indolizinone, Racemate B] | – | – | – | – | – | Minimum Effective Dose ([1]; dog, i.v., coronary ligation, average minimum dose giving at least 25% reduction in ectopic beats for at least ten minutes in half or more of the dogs, listed as Ex. 7): 5.0 mpk
3 | CC(C)N(CCC(C(N)=O)(c1ccccc1)c1ccccn1)C(C)C (stereo not drawn) [Disopyramide] | – | – | active under these conditions | anticholinergic effects | active in man | minimal effective dose [1]: 9.2 mg/kg; effective refractory period of the atrium ([4]; at therapeutic levels): lengthens the effective refractory period of the atrium; refractory period of the A-V node ([4]; at therapeutic levels): minimal effect on the refractory period of the A-V node; sinus node recovery time ([4]; at therapeutic levels): shortens the sinus node recovery time; Human dose (i.v.) ([5]; human, i.v., comment in Table 1): ca. 2 mpk
4 | CC(C)N(CCC1(c2ccccc2)CC2CCCCN2C1=O)C(C)C (stereo not drawn) [Example 3, 2-[2-[bis(1-methylethyl)amino]ethyl]-hexahydro-2-phenyl-3(2H)-indolizinone] | 5 | – | – | – | – | –
5 | CC(C)N(CCC1(c2ccc(-c3ccccc3)cc2)CC2CCCCN2C1=O)C(C)C (stereo not drawn) [Example 10, 2-[2-[bis(1-methylethyl)amino]ethyl]-2-(4-phenylphenyl)hexahydro-3(2H)-indolizinone] | 3 | 34 | – | – | – | –
6 | CC(C)N(CCC1(c2ccccc2)CC2CCCCN2C1=O)C(C)C (stereo not drawn) [Example 11, 2-[2-[bis(1-methylethyl)amino]ethyl]hexahydro-2-phenyl-3(2H)-indolizinone hydrochloride hydrate] | – | 81 | – | – | – | –
7 | CCN(CC)CCNC(=O)c1ccc(N)cc1 [Procainamide] | – | – | active under these conditions | – | active in man | –
8 | CC(C)NCC(O)COc1cccc2ccccc12 (stereo not drawn) [Propranolol] | – | – | – | may induce significant hypotension, left ventricular failure, or even cardiovascular collapse | – | –
9 | C=C[C@H]1C[N@@]2CC[C@H]1C[C@@H]2[C@@H](O)c1ccnc2ccc(OC)cc12 [Quinidine] | – | – | active under these conditions | exhibits several toxic reactions, such as cinchonism | active in man | –
